# In patent EP1561465A2, “Methods of use of fluoroquinolone compounds against bacteria” (LG Life Sciences, Ltd., priority 1999, dated 2001):
# Like-named read-outs stand apart in the source and are kept apart here.
# Key:
# [1] = tested on: Klebsiella pneumoniae; assay: MIC by agar dilution (NCCLS), 322 nosocomial Gram negative isolates, Athens 1998; type: cell-based; details: n = 56 isolates
# [2] = tested on: Staphylococcus aureus; assay: MIC by agar dilution (NCCLS), 411 isolates Buenos Aires 1998-99; type: cell-based; details: for MIC90: Staphylococcus aureus
# [3] = tested on: Klebsiella pneumoniae; assay: MIC by NCCLS broth microdilution, 1100 Japanese clinical isolates 1997-1998; type: cell-based; details: Klebsiella pneumoniae (n=35)
# [4] = tested on: Enterobacter spp.; assay: MIC by agar dilution (NCCLS), 322 nosocomial Gram negative isolates, Athens 1998; type: cell-based; details: n = 57 isolates
# [5] = tested on: Streptococcus pneumoniae; assay: MIC by broth microdilution (NCCLS), dried MicroScan panels, clinical isolates 1998-1999; type: cell-based; details: for MIC90: Streptococcus pneumoniae
# [6] = tested on: Streptococcus pyogenes; assay: MIC by agar dilution (NCCLS), 411 isolates Buenos Aires 1998-99; type: cell-based
# [7] = tested on: E. coli; assay: microbe, parasite or virus in culture; type: cell-based; details: Escherichia coli
# [8] = tested on: Shigella spp.; assay: MIC by agar dilution (NCCLS M7-A4), 288 enteropathogenic isolates, gemifloxacin and 15 other antimicrobials; type: cell-based; details: Shigella spp. N= 21
# Procedure, shortened: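 Agar dilution with ~10^4 cfu/spot inoculum; plates incubated aerobically at 35 °C for 24 h, except C. jejuni, held microaerophilically for 48 h. MIC taken as lowest antibiotic concentration with no visible growth.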
# [9] = tested on: Gram positive anaerobic and facultative anaerobic pathogens; assay: microbe, parasite or virus in culture; type: cell-based
# [10] = tested on: Acinetobacter spp.; assay: MIC by agar dilution (NCCLS), 322 nosocomial Gram negative isolates, Athens 1998; type: cell-based; details: n = 38 strains
# [11] = tested on: Campylobacter jejuni; assay: MIC by agar dilution (NCCLS M7-A4), 288 enteropathogenic isolates, gemifloxacin and 15 other antimicrobials; details: for MIC: Campylobacter jejuni
# [12] = tested on: Enterobacter aerogenes; assay: MIC by NCCLS broth microdilution, 1100 Japanese clinical isolates 1997-1998; type: cell-based; details: Enterobacter aerogenes (n=35)
# [13] = tested on: Salmonella spp.; assay: as above; type: cell-based; details: Salmonella spp. (n=29)
# [14] = tested on: Klebsiella oxytoca; assay: as above; type: cell-based; details: Klebsiella oxytoca (n=40)
# [15] = tested on: Serratia marcescens; assay: as above; type: cell-based; details: Serratia marcescens (n=30)
# [16] = tested on: Shigella spp.; assay: as above; type: cell-based; details: Shigella spp. (n=34)
# [17] = tested on: Haemophilus influenzae; assay: MIC by agar dilution (NCCLS), 411 isolates Buenos Aires 1998-99; type: cell-based; details: Haemophilus influenzae (n = 65)
# [18] = tested on: Haemophilus influenzae; assay: MIC by NCCLS reference broth microdilution, 450 respiratory tract pathogens; type: cell-based; details: Haemophilus influenzae; for MIC90: read-out: MIC90
# [19] = tested on: Klebsiella pneumoniae; assay: as above; type: cell-based; details: for MIC50 / MIC90: Klebsiella pneumoniae
# [20] = tested on: P. aeruginosa; assay: MIC by two-fold serial agar dilution, quinolone-resistant strains; type: cell-based; details: Pseudomonas aeruginosa
# [21] = S. aureus, Methicillin resistant (n = 14)
# [22] = S. aureus, Methicillin susceptible (n = 66)
# [23] = Streptococcus pneumoniae (302 isolates)
# [24] = Haemophilus influenzae (n = 100)
# [25] = extended spectrum β-lactamase negative (n = 30)
# [26] = extended spectrum β-lactamase positive (n = 20)
smiles,measurement,setting,value
"N[C@@H]1[C@H]2CN(c3nc4c(cc3F)c(=O)c(C(=O)O)cn4-c3ccc(F)cc3F)C[C@@H]12 [Trovafloxacin, trovafloxacin]",MIC50,[1]; Klebsiella pneumoniae,0.125 µg/mL
same,MIC90,[1]; Klebsiella pneumoniae,1 µg/mL
same,MIC Range,[1],≤0.03 to 16 µg/mL
same,Resistance (%),[2]; [21],7%
same,Resistance (%),[2]; [22],0%
same,MIC Range,[2]; Staphylococcus aureus (n = 80),≤0.004 to 8 µg/mL
same,MIC90,[2]; [21],4 µg/mL
same,MIC90,[2]; [22],0.06 µg/mL
same,MIC90,[2]; Staphylococcus aureus (n = 80),2 µg/mL
same,MIC50,[3],0.032 µg/mL
same,MIC Range,[3],≤0.008 to 1 µg/mL
same,MIC90,[3]; read-out: MIC90,0.063 µg/mL
same,MIC50,"[4]; Enterobacter, read-out: MIC50",0.125 µg/mL
same,MIC90,"[4]; Enterobacter, read-out: MIC90",16 µg/mL
same,MIC Range,[4],≤0.03 to 64 µg/mL
same,MIC50,[5]; [23],0.12 µg/mL
same,MIC Range,[5]; [23],≤0.015 to 1 µg/mL
same,MIC90,[5]; Erythromycin-resistant (86),0.25 µg/mL
same,MIC90,[5]; Erythromycin-sensitive (216),0.25 µg/mL
same,MIC90,[5]; Penicillin-intermediate (124),0.25 µg/mL
same,MIC90,[5]; Penicillin-resistant (80),0.25 µg/mL
same,MIC90,[5]; Penicillin-sensitive (98),0.25 µg/mL
same,MIC90,[5]; [23],0.25 µg/mL
same,MIC90,[6]; Streptococcus pyogenes,0.125 µg/mL
same,MIC Range,[6]; Streptococcus pyogenes (n = 69),0.06 to 1 µg/mL
same,MIC50,"[7]; E. coli (13 strains), quinolone-resistant, read-out: MIC50",0.063 µg/mL
same,MIC90,"[7]; E. coli (13 strains), quinolone-resistant, read-out: MIC90",0.5 µg/mL
same,MIC,"[7]; E. coli KU1029, mutant type SP (spontaneous mutant in the DNA gyrase)",0.063 µg/mL
same,MIC,"[7]; E. coli KU1030, mutant type SP",0.063 µg/mL
same,MIC,"[7]; E. coli KU1031, mutant type SP",0.063 µg/mL
same,MIC,"[7]; E. coli KU1032, mutant type SP",0.25 µg/mL
same,MIC,"[7]; E. coli KU1033, mutant type SP",0.031 µg/mL
same,MIC,"[7]; E. coli KU1034, mutant type GA (DNA gyrase A)",0.5 µg/mL
same,MIC,"[7]; E. coli KU1035, mutant type GA (DNA gyrase A)",0.5 µg/mL
same,MIC,"[7]; E. coli KU1036, mutant type GB (DNA gyrase B)",0.063 µg/mL
same,MIC,"[7]; E. coli KU1038, mutant type SP",0.063 µg/mL
same,MIC,"[7]; E. coli KU1039, mutant type SP",0.25 µg/mL
same,MIC,"[7]; E. coli KU1040, mutant type SP",≤ 0.008 µg/mL
same,MIC,"[7]; E. coli KU1041, mutant type SP",0.5 µg/mL
same,MIC,"[7]; E. coli KU1042, mutant type SP",0.125 µg/mL
same,MIC,"[8]; 24 h, read-out: MIC (mg/L) Range",≤ 0.015 mg/L
same,MIC,[8]; read-out: MIC (mg/L) 50%,≤ 0.015 mg/L
same,MIC,[8]; read-out: MIC (mg/L) 90%,≤ 0.015 mg/L
same,MIC,"[9]; Bifidobacterium adolescentis, ATCC15703",1 µg/mL
same,MIC,"[9]; Bifidobacterium bifidum, JCM1255",4 µg/mL
same,MIC,"[9]; Bifidobacterium breve, ATCC15700",4 µg/mL
same,MIC,"[9]; Bifidobacterium longum, ATCC15707",4 µg/mL
same,MIC,"[9]; Bifidobacterium pseudolongum, ATCC25526",4 µg/mL
same,MIC,[9]; Clostridioides difficile,1 µg/mL
same,MIC,"[9]; Clostridium perfringens, ATCC13124",0.125 µg/mL
same,MIC,"[9]; Clostridium septicum, ATCC12464",0.125 µg/mL
same,MIC,"[9]; Cutibacterium acnes, ATCC11828",1 µg/mL
same,MIC,"[9]; Eggerthella lenta, ATCC25559",0.5 µg/mL
same,MIC,"[9]; Finegoldia magna, ATCC29328",0.125 µg/mL
same,MIC,"[9]; Gemella morbillorum, ATCC27824",0.25 µg/mL
same,MIC,"[9]; Lacticaseibacillus casei, JCM1134",0.06 µg/mL
same,MIC,"[9]; Lactiplantibacillus plantarum, JCM1149",4 µg/mL
same,MIC,"[9]; Lactobacillus acidophilus, JCM1132",4 µg/mL
same,MIC,"[9]; Levilactobacillus brevis, JCM1059",1 µg/mL
same,MIC,"[9]; Ligilactobacillus salivarius, JCM1231",0.125 µg/mL
same,MIC,"[9]; Limosilactobacillus reuteri, JCM1112",1 µg/mL
same,MIC,"[9]; Limosilactobacillus reuteri, JCM1173",1 µg/mL
same,MIC,"[9]; Paraclostridium sordellii, ATCC9714",0.25 µg/mL
same,MIC,[9]; Parvimonas micra,0.06 µg/mL
same,MIC,[9]; Peptoniphilus asaccharolyticus,0.5 µg/mL
same,MIC,[9]; Peptoniphilus indolicus,0.125 µg/mL
same,MIC,"[9]; Peptostreptococcus anaerobius, ATCC27337",0.06 µg/mL
same,MIC,[9]; Schaalia odontolytica,4 µg/mL
same,MIC,"[9]; Staphylococcus saccharolyticus, ATCC14953",0.06 µg/mL
same,MIC,"[9]; Streptococcus constellatus, ATCC27823",0.125 µg/mL
same,MIC,"[9]; Streptococcus intermedius, ATCC27335",0.125 µg/mL
same,MIC,"[9]; Thomasclavelia ramosa, ATCC25582",0.5 µg/mL
same,MIC50,[10]; Acinetobacter,2 µg/mL
same,MIC90,[10]; Acinetobacter,16 µg/mL
same,MIC Range,[10],≤0.03 to 32 µg/mL
same,MIC (mg/L) Range,[11]; Campylobacter jejuni N= 91,≤0.015 to 32 mg/L
same,MIC,[11]; read-out: MIC (mg/L) 50%,8 mg/L
same,MIC,[11]; read-out: MIC (mg/L) 90%,8 mg/L
same,MIC Range,[12],≤0.008 to 0.125 µg/mL
same,MIC50,[12]; Klebsiella aerogenes,0.032 µg/mL
same,MIC90,[12]; Klebsiella aerogenes,0.063 µg/mL
same,MIC50,[13],0.032 µg/mL
same,MIC90,[13],0.063 µg/mL
same,MIC Range,[13],0.016 to 0.063 µg/mL
same,MIC50,[14],0.032 µg/mL
same,MIC90,[14],8 µg/mL
same,MIC Range,[14],≤0.008 to 32 µg/mL
same,MIC90,[15],2 µg/mL
same,MIC50,[15]; read-out: MIC50,0.25 µg/mL
same,MIC50,[16],≤ 0.008 µg/mL
same,MIC90,[16],0.032 µg/mL
same,MIC Range,[16],≤0.008 to 0.032 µg/mL
same,MIC90,[17],0.03 µg/mL
same,MIC Range,[17],≤0.004 to 0.5 µg/mL
same,MIC,[18]; [24],0.0075 to 0.25 µg/mL
same,MIC50,[18]; [24],≤ 0.00075 µg/mL
same,MIC90,[18]; [24],0.06 µg/mL
same,MIC,[18]; β-lactamase negative (n = 80),0.0075 to 0.25 µg/mL
same,MIC50,[18]; β-lactamase negative (n = 80),≤ 0.0075 µg/mL
same,MIC90,[18]; β-lactamase negative (n = 80),0.015 µg/mL
same,MIC,[18]; β-lactamase positive (n = 20),0.0075 to 0.06 µg/mL
same,MIC50,[18]; β-lactamase positive (n = 20),≤ 0.0075 µg/mL
same,MIC90,[18]; β-lactamase positive (n = 20),0.06 µg/mL
same,MIC Range,[19]; Klebsiella pneumoniae (n = 50),≤0.0075 to 0.5 µg/mL
same,MIC50,[19]; Klebsiella pneumoniae (n = 50),0.06 µg/mL
same,MIC90,[19]; Klebsiella pneumoniae (n = 50),0.5 µg/mL
same,MIC50,[19]; [25],0.06 µg/mL
same,MIC90,[19]; [25],0.12 µg/mL
same,MIC50,[19]; [26],0.5 µg/mL
same,MIC90,[19]; [26],0.5 µg/mL
same,MIC Range,[19]; [25],≤0.0075 to 0.015 µg/mL
same,MIC Range,[19]; [26],0.06 to 0.5 µg/mL
same,MIC,[20],1 µg/mL
